The supplement of paper PMC11061612

Legend:
Assay in all cases: combination Emax (second highest fraction inhibited in the dose matrix, 72 h); higher = more inhibition; extreme values may be limits of the assay
KS-1 (Glioblastoma) = test system: KS-1 (Glioblastoma)
In short: (§1)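 Cell lines grown in DMEM/F12 or RPMI with 10% FBS were plated in 1536-well plates and held 24 hours at 37°C, 5% CO2 before 72 hours of exposure to two-drug dose matrices, with DMSO typically at 0.2%. CellTiter-Glo 2.0 luminescence gave viability, which was converted to inhibition. Vehicle wells were set to 0 and blank wells to 1. Combination Emax is the second-highest inhibition in the matrix, and Bliss excess is the observed combination effect minus the expected EA + EB − EA·EB, where EA and EB are the single-agent effects.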

[1] = test system: YAPC (Pancreatic Carcinoma)
In short: as §1

GAMG (Glioblastoma) = test system: GAMG (Glioblastoma)
In short: as §1

MPP-89 (Mesothelioma) = test system: MPP-89 (Mesothelioma)
In short: as §1

[2] = test system: Detroit562 (Head and Neck Carcinoma)
In short: as §1

[3] = test system: FTC-133 (Thyroid Gland Carcinoma)
In short: as §1

NCI-H2722 (Mesothelioma) = test system: NCI-H2722 (Mesothelioma)
In short: as §1

NCI-H2052 (Mesothelioma) = test system: NCI-H2052 (Mesothelioma)
In short: as §1

[4] = test system: LCLC-97TM1 (Non-Small Cell Lung Carcinoma)
In short: as §1

BPH-1 (Non-Cancerous) = test system: BPH-1 (Non-Cancerous)
In short: as §1

Compound | combination Emax (KS-1 (Glioblastoma)) | combination Emax [1] | combination Emax (GAMG (Glioblastoma)) | combination Emax (MPP-89 (Mesothelioma)) | combination Emax [2] | combination Emax [3] | combination Emax (NCI-H2722 (Mesothelioma)) | combination Emax (NCI-H2052 (Mesothelioma)) | combination Emax [4] | combination Emax (BPH-1 (Non-Cancerous))
C[C@@H](Nc1cc(F)cc(F)c1)c1cc(C(=O)N(C)C)cc2c(=O)cc(N3CCOCC3)oc12 [AZD8186] + C1CN(CCC1(C(=O)N[C@@H](CCO)C2=CC=C(C=C2)Cl)N)C3=NC=NC4=C3C=CN4 [AZD5363] (first compound max 10 µM, 7x7, partner max 10 µM) | 0.458 | 0.246 | 0.657 | 0.382 |  |  |  |  |  | 
CC1(C)CCC(CN2CCN(c3ccc(C(=O)NS(=O)(=O)c4ccc(NCC5CCOCC5)c([N+](=O)[O-])c4)c(Oc4cnc5[nH]ccc5c4)c3)CC2)=C(c2ccc(Cl)cc2)C1 [Venetoclax] + C[C@@H]1COCCN1C2=NC(=NC(=C2)C3(CC3)[S@](=N)(=O)C)C4=C5C=CNC5=NC=C4 [AZD6738] (first compound max 1 µM, 7x7, partner max 10 µM) | 0.57 | 0.317 | 0.708 | 0.686 | 0.829 | 0.779 | 0.384 | 0.431 | 0.85 | 0.332
Cc1c2c(nn1C)CSCc1cc(n(C)n1)CSc1cc(c3ccccc3c1)OCCCc1c(C(=O)O)n(C)c3c-2c(Cl)ccc13 [AZD5991] + CC(=O)O[C@H]1C(=O)[C@@]2(C)[C@H]([C@H](OC(=O)c3ccccc3)[C@]3(O)C[C@H](OC(=O)[C@H](O)[C@@H](NC(=O)c4ccccc4)c4ccccc4)C(C)=C1C3(C)C)[C@]1(OC(C)=O)CO[C@@H]1C[C@@H]2O [Paclitaxel] (first compound max 1 µM, 7x7, partner max 3 µM) | 0.582 | 0.315 | 0.999 | 0.557 |  |  |  |  |  | 
Cn1cnc2c(F)c(Nc3ccc(Br)cc3Cl)c(C(=O)NOCCO)cc21 [Selumetinib] + CC(C)n1c(=O)n(C)c2cnc3cc(F)c(-c4ccc(OCCCN5CCCCC5)nc4)cc3c21 [AZD1390] (first compound max 10 µM, 7x7, partner max 0.3 µM) | 0.197 | 0.193 | 0.151 | 0.0892 | 0.367 | 0.166 | 0.0639 | 0.193 | 0.528 | 0.487
CC(=O)c1c(C)c2cnc(Nc3ccc(N4CCNCC4)cn3)nc2n(C2CCCC2)c1=O [Palbociclib] + CC1(C)CCC(CN2CCN(c3ccc(C(=O)NS(=O)(=O)c4ccc(NCC5CCOCC5)c([N+](=O)[O-])c4)c(Oc4cnc5[nH]ccc5c4)c3)CC2)=C(c2ccc(Cl)cc2)C1 [Venetoclax] (first compound max 10 µM, 7x7, partner max 1 µM) | 0.348 | 0.165 | 0.231 | 0.0837 | 0.543 | 0.0919 | 0.118 | 0.133 | 0.176 | 0.153
CN(CCO)CC[C@H](CSc1ccccc1)Nc1ccc(S(=O)(=O)NC(=O)c2ccc(N3CCC([C@@H](O)c4ccccc4-c4ccc(Cl)cc4)CC3)cc2)cc1S(=O)(=O)C(F)(F)F [AZD4320] + C[C@@H](Nc1cc(F)cc(F)c1)c1cc(C(=O)N(C)C)cc2c(=O)cc(N3CCOCC3)oc12 [AZD8186] (first compound max 1 µM, 7x7, partner max 3 µM) | 0.486 | 0.237 | 0.615 | 0.494 | 0.666 | 0.803 | 0.555 | 0.262 | 0.343 | 0.733
Cc1c2c(nn1C)CSCc1cc(n(C)n1)CSc1cc(c3ccccc3c1)OCCCc1c(C(=O)O)n(C)c3c-2c(Cl)ccc13 [AZD5991] + CC1(C)CCC(CN2CCN(c3ccc(C(=O)NS(=O)(=O)c4ccc(NCC5CCOCC5)c([N+](=O)[O-])c4)c(Oc4cnc5[nH]ccc5c4)c3)CC2)=C(c2ccc(Cl)cc2)C1 [Venetoclax] (first compound max 1 µM, 7x7, partner max 1 µM) | 0.146 | 0.146 | 0.315 | 0.171 | 0.156 | 0.677 | 0.122 | 0.229 | 0.138 | 0.353
C[C@@H]1COCCN1c1cc(C2([S@](C)(=N)=O)CC2)nc(-c2ccnc3[nH]ccc23)n1 [AZD6738] + C1CC(C1)(C(=O)[O-])C(=O)[O-].N.N.[Pt+2] [Carboplatin] (first compound max 10 µM, 7x7, partner max 10 µM) | 0.431 | 0.369 | 0.611 | 0.42 |  |  |  |  |  | 
CS(=O)(=O)CCNCc1ccc(-c2ccc3ncnc(Nc4ccc(OCc5cccc(F)c5)c(Cl)c4)c3c2)o1 [Lapatinib] + Cn1cnc2c(F)c(Nc3ccc(Br)cc3Cl)c(C(=O)NOCCO)cc21 [Selumetinib] (first compound max 10 µM, 7x7, partner max 10 µM) | 0.342 | 0.386 | 0.644 | 0.42 |  |  |  |  |  | 
O=C(c1cc(Cc2n[nH]c(=O)c3ccccc23)ccc1F)N1CCN(C(=O)C2CC2)CC1 [Olaparib] + COc1nnc2ccc(N3CCC(c4ccc(OCCN5CCN(C)C(=O)[C@H]5C)cc4)CC3)nn12 [AZD5153] (first compound max 10 µM, 7x7, partner max 1 µM) | 0.582 | 0.267 | 0.448 | 0.393 |  |  |  |  |  | 
C=CCn1c(=O)c2cnc(Nc3ccc(N4CCN(C)CC4)cc3)nc2n1-c1cccc(C(C)(C)O)n1 [AZD1775] + Nc1ccn([C@@H]2O[C@H](CO)[C@@H](O)C2(F)F)c(=O)n1 [Gemcitabine] (first compound max 1 µM, partner max 0.3 µM) | 0.5 | 0.643 | 0.805 | 0.599 |  |  |  |  |  | 
O=C(c1cc(Cc2n[nH]c(=O)c3ccccc23)ccc1F)N1CCN(C(=O)C2CC2)CC1 [Olaparib] + CN(CC[C@H](CSC1=CC=CC=C1)NC2=C(C=C(C=C2)S(=O)(=O)NC(=O)C3=CC=C(C=C3)N4CCC(CC4)[C@H](C5=CC=CC=C5C6=CC=C(C=C6)Cl)O)S(=O)(=O)C(F)(F)F)CCO [AZD4320] (first compound max 10 µM, 7x7, partner max 1 µM) | 0.2 | 0.11 | 0.223 | 0.138 |  |  |  |  |  | 
CC1(C)CCC(CN2CCN(c3ccc(C(=O)NS(=O)(=O)c4ccc(NCC5CCOCC5)c([N+](=O)[O-])c4)c(Oc4cnc5[nH]ccc5c4)c3)CC2)=C(c2ccc(Cl)cc2)C1 [Venetoclax] + CS(=O)(=O)CCNCc1ccc(-c2ccc3ncnc(Nc4ccc(OCc5cccc(F)c5)c(Cl)c4)c3c2)o1 [Lapatinib] (first compound max 1 µM, 7x7, partner max 10 µM) | 0.089 | 0.129 | 0.284 | 0.136 |  |  |  |  |  | 
CS(=O)(=O)CCNCc1ccc(-c2ccc3ncnc(Nc4ccc(OCc5cccc(F)c5)c(Cl)c4)c3c2)o1 [Lapatinib] + NC1(c2ccc(-c3nc4ccn5c(=O)[nH]nc5c4cc3-c3ccccc3)cc2)CCC1 [MK-2206] (first compound max 10 µM, 7x7, partner max 10 µM) | 0.403 | 0.356 | 0.862 | 0.152 |  |  |  | 0.515 |  | 
C[C@@H]1COCCN1c1cc(C2([S@](C)(=N)=O)CC2)nc(-c2ccnc3[nH]ccc23)n1 [AZD6738] + Nc1ccn([C@@H]2O[C@H](CO)[C@@H](O)C2(F)F)c(=O)n1 [Gemcitabine] (first compound max 10 µM, 7x7, partner max 0.3 µM) |  | 0.725 | 0.87 | 0.63 |  |  |  |  |  | 
Cc1nc(-c2cn3c(n2)-c2ccc(-c4cnn(C(C)(C)C(N)=O)c4)cc2OCC3)n(C(C)C)n1 [Taselisib] + O=C(Nc1ccc2[nH]nc(-c3ccncc3)c2c1)[C@@H]1CCN(CC(=O)N2CCN(c3ccc(-c4ncccn4)cc3)CC2)C1 [SCH772984] (first compound max 10 µM, 7x7, partner max 5 µM) | 0.677 | 0.701 | 0.78 | 0.688 |  |  |  |  |  | 
C=CCn1c(=O)c2cnc(Nc3ccc(N4CCN(C)CC4)cc3)nc2n1-c1cccc(C(C)(C)O)n1 [AZD1775] + CCc1c2c(nc3ccc(O)cc13)-c1cc3c(c(=O)n1C2)COC(=O)[C@]3(O)CC [SN-38] (first compound max 1 µM, partner max 0.3 µM) | 0.52 | 0.722 | 0.916 | 0.769 |  |  |  |  |  | 
O=C(c1cc(Cc2n[nH]c(=O)c3ccccc23)ccc1F)N1CCN(C(=O)C2CC2)CC1 [Olaparib] + CC1(C)CCC(CN2CCN(c3ccc(C(=O)NS(=O)(=O)c4ccc(NCC5CCOCC5)c([N+](=O)[O-])c4)c(Oc4cnc5[nH]ccc5c4)c3)CC2)=C(c2ccc(Cl)cc2)C1 [Venetoclax] (first compound max 10 µM, 7x7, partner max 1 µM) | 0.0863 | 0.081 | 0.0955 | 0.0498 |  |  |  |  |  | 
Cc1c2c(nn1C)CSCc1cc(n(C)n1)CSc1cc(c3ccccc3c1)OCCCc1c(C(=O)O)n(C)c3c-2c(Cl)ccc13 [AZD5991] + Nc1ccn([C@@H]2O[C@H](CO)[C@@H](O)C2(F)F)c(=O)n1 [Gemcitabine] (first compound max 1 µM, 7x7, partner max 0.3 µM) | 0.288 | 0.575 | 0.662 | 0.428 |  |  |  |  |  | 
C[C@@H](Nc1cc(F)cc(F)c1)c1cc(C(=O)N(C)C)cc2c(=O)cc(N3CCOCC3)oc12 [AZD8186] + CC(=O)c1c(C)c2cnc(Nc3ccc(N4CCNCC4)cn3)nc2n(C2CCCC2)c1=O [Palbociclib] (first compound max 10 µM, 7x7, partner max 10 µM) | 0.428 | 0.349 | 0.723 | 0.317 |  |  |  |  |  | 
O=C(c1cc(Cc2n[nH]c(=O)c3ccccc23)ccc1F)N1CCN(C(=O)C2CC2)CC1 [Olaparib] + Cc1c2c(nn1C)CSCc1cc(n(C)n1)CSc1cc(c3ccccc3c1)OCCCc1c(C(=O)O)n(C)c3c-2c(Cl)ccc13 [AZD5991] (first compound max 10 µM, 7x7, partner max 1 µM) | 0.0895 | 0.104 | 0.0955 | 0.0575 |  |  |  |  |  | 
